This assay addresses T1, endothelial lipase (EL) (Homo sapiens, UniProt Q9Y5X9).
T1 construct: Conditioned media obtained from HT-1080 cells, which were transformed by RAGE technology (Athersys) to overexpress endogenous EL; endogenous in cells; conditioned medium used as the enzyme source
T1 sequence (Q9Y5X9 21-500): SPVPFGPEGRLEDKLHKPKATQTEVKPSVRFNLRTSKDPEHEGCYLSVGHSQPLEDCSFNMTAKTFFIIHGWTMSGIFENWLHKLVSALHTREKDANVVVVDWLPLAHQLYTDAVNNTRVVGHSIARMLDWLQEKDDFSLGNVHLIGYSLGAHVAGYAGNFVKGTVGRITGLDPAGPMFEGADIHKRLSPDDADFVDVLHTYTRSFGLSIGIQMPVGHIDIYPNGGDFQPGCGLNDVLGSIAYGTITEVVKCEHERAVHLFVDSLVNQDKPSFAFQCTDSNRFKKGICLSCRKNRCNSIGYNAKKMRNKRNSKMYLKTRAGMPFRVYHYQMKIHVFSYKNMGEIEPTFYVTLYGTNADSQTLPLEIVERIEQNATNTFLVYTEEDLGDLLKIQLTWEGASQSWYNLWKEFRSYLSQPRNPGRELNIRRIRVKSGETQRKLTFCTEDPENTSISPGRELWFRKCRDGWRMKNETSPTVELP
In words: Endothelial lipase (EL) enzymatic assay with fluorescent substrate A10070 in DMPG vesicles. The assay is classed as biochemical. The settings on record: conditioned media from HT-1080 cells overexpressing endogenous EL; 20 min preincubation at 37° C.; read-out: HLE_EL_CRC IC50. As for the experimental part:
Endothelial lipase activity was measured using a fluorescent substrate, A10070, (Invitrogen, CA) doped into an artificial vesicle containing DMPG (Avanti Polar Lipids) as the excipient. Vesicles were prepared by combining 285 uL of 1 mM DMPG in a 1:1 mixture of MeOH and CHCl3 with 15 uL of 1 mM A10070 in a 1:1 mixture of MeOH and CHCl3. The mixture was dried under nitrogen and resuspended in 150 uL of 50 mM HEPES pH 8.0 buffer containing 100 mM NaCl and 0.2 mM EDTA. The sample was allowed to sit at rt for 15 min and then was sonicated 3×4 mins on ice with a Branson Sonicator using duty cycle 1. This preparation provides vesicles with a mole fraction of 0.05 for the FRET substrate.
The enzymatic assay was measured using white, opaque 96-well half area plates. Each well contained 60 uL of assay buffer (50 mM HEPES pH 8.0, 50 mM NaCl and 1 mM CaCl2) and 2 ul of a DMSO solution containing compound of interest. Conditioned media obtained from HT-1080 cells, which were transformed by RAGE technology (Athersys) to overexpress endogenous EL, was added and the reaction was allowed to incubate for 20 min at 37° C. with gentle agitation. The reaction was started by the addition of 20 uL of a 1:4 dilution of vesicles. The final total reaction volume was 100 uL. The reaction rates were measured on a Gemini plate reader with an excitation wavelength of 488 nm and a emission of 530 nm. Readings were taken every 20 seconds for 10 min with agitation between each reading. The slope of the linear portion of the readout was used to calculate the rate of the reaction.

The source of these data is patent publication US8933235B2, “Pyridinedione carboxamide inhibitors of endothelial lipase” (Bristol-Myers Squibb Company, priority 2011, dated 2015).

What is called IC50 is the concentration needed to halve the response being measured. As for `Cn1c(-c2ccc(Cl)c(C(F)(F)F)c2)cc(C(=O)NCCCc2ccc(Cl)c(Cl)c2)c(O)c1=O` [Example 8, 6-(4-chloro-3-(trifluoromethyl)phenyl)-N-(3-(3,4-dichlorophenyl)propyl)-3-hydroxy-1-methyl-2-oxo-1,2-dihydropyridine-4-carboxamide], the half-maximal inhibitory concentration (IC50) is below 10 nM.

For the compound `CC(C)CNc1c(C(=O)NCCCc2ccc(Cl)c(Cl)c2)ccn(C)c1=O` [Example 188, N-(3-(3,4-dichlorophenyl)propyl)-3-(isobutylamino)-1-methyl-2-oxo-1,2-dihydropyridine-4-carboxamide], the IC50 turned out to be 200 nM.

Consider `CC(CCc1ccccc1)NC(=O)c1ccn(C)c(=O)c1O` (stereo not drawn) [Example 126, 3-hydroxy-1-methyl-2-oxo-N-(4-phenylbutan-2-yl)-1,2-dihydropyridine-4-carboxamide], for which the IC50 came to 2460 nM.

Regarding `Cn1c(C(F)(F)F)cc(C(=O)NCCCOc2ccccc2Cl)c(O)c1=O` [Example 88, N-(3-(2-chlorophenoxy)propyl)-3-hydroxy-1-methyl-2-oxo-6-(trifluoromethyl)-1,2-dihydropyridine-4-carboxamide], the half-maximal inhibitory concentration (IC50) is below 10 nM.

On to `Cn1c(-c2cc(F)cc(C(F)(F)F)c2)cc(C(=O)NCCCc2ccc(Cl)c(Cl)c2)c(O)c1=O` [Example 7, N-(3-(3,4-dichlorophenyl)propyl)-6-(3-fluoro-5-(trifluoromethyl)phenyl)-3-hydroxy-1-methyl-2-oxo-1,2-dihydropyridine-4-carboxamide], for which the IC50 is below 10 nM.

For the compound `COc1ccc(CCNC(=O)c2ccn(C)c(=O)c2O)cc1` [Example 128, 3-hydroxy-N-(4-methoxyphenethyl)-1-methyl-2-oxo-1,2-dihydropyridine-4-carboxamide], the IC50 was found to be 6620 nM.

Regarding `Cn1c(-c2cc(F)cc(C(F)(F)F)c2)cc(C(=O)NCCCOc2ccc(F)cc2)c(O)c1=O` [Example 64, 6-(3-fluoro-5-(trifluoromethyl)phenyl)-N-(3-(4-fluorophenoxy)propyl)-3-hydroxy-1-methyl-2-oxo-1,2-dihydropyridine-4-carboxamide], the IC50 was below 10 nM.

Turning to `Cn1c(-c2cc(F)cc(C(F)(F)F)c2)cc(C(=O)NCCc2cccc(C(F)(F)F)c2)c(O)c1=O` [Example 56, 6-(3-fluoro-5-(trifluoromethyl)phenyl)-3-hydroxy-1-methyl-2-oxo-N-(3-(trifluoromethyl)phenethyl)-1,2-dihydropyridine-4-carboxamide], the concentration for half-maximal inhibition (IC50) was 216 nM.

For the compound `CC(C)C(CCc1ccc(Cl)c(Cl)c1)NC(=O)c1ccn(C)c(=O)c1O` (single isomer, unassigned) [Example 114, N-(1-(3,4-dichlorophenyl)-4-methylpentan-3-yl)-3-hydroxy-1-methyl-2-oxo-1,2-dihydropyridine-4-carboxamide], the IC50 stood at 6860 nM.

Consider `COc1c(C(=O)NCCCc2ccc(Cl)c(Cl)c2)ccn(C)c1=O` [Example 113, N-(3-(3,4-dichlorophenyl)propyl)-3-methoxy-1-methyl-2-oxo-1,2-dihydropyridine-4-carboxamide], for which the IC50 was determined as 5820 nM.

As to `Cn1c(C(F)(F)F)cc(C(=O)NCCCOc2ccccc2C(F)(F)F)c(O)c1=O` [Example 89, 3-hydroxy-1-methyl-2-oxo-6-(trifluoromethyl)-N-(3-(2-(trifluoromethyl)phenoxy)propyl)-1,2-dihydropyridine-4-carboxamide], the concentration for half-maximal inhibition (IC50) was below 10 nM.

In the case of `Cn1ccc(C(=O)NC(CCc2ccc(Cl)c(Cl)c2)c2ccccc2)c(O)c1=O` (single isomer, unassigned) [Example 120, N-(3-(3,4-dichlorophenyl)-1-phenylpropyl)-3-hydroxy-1-methyl-2-oxo-1,2-dihydropyridine-4-carboxamide], the 50% inhibitory concentration (IC50) amounted to 167 nM.

Regarding `Cn1c(-c2cc(F)cc(C(F)(F)F)c2)cc(C(=O)NCCCOc2ccccc2[N+](=O)[O-])c(O)c1=O` [Example 81, 6-(3-fluoro-5-(trifluoromethyl)phenyl)-3-hydroxy-1-methyl-N-(3-(2-nitrophenoxy)propyl)-2-oxo-1,2-dihydropyridine-4-carboxamide], the IC50 was below 10 nM.

For `Cn1ccc(C(=O)NCCCOc2cccc(F)c2)c(O)c1=O` [Example 142, N-(3-(3-fluorophenoxy)propyl)-3-hydroxy-1-methyl-2-oxo-1,2-dihydropyridine-4-carboxamide], the IC50 was 216 nM.

With `CC(C)OCCNc1c(C(=O)NCCCc2ccc(Cl)c(Cl)c2)ccn(C)c1=O` [Example 189, N-(3-(3,4-dichlorophenyl)propyl)-3-(2-isopropoxyethylamino)-1-methyl-2-oxo-1,2-dihydropyridine-4-carboxamide], the IC50 is 210 nM.

For the compound `COc1ccc(CCNC(=O)c2cc(-c3cc(F)cc(C(F)(F)F)c3)n(C)c(=O)c2O)cc1` [Example 51, 6-(3-fluoro-5-(trifluoromethyl)phenyl)-3-hydroxy-N-(4-methoxyphenethyl)-1-methyl-2-oxo-1,2-dihydropyridine-4-carboxamide], the IC50 worked out at 178 nM.

Consider `Cn1c(-c2cccc(C(=O)O)c2)cc(C(=O)NCCCc2ccc(Cl)c(Cl)c2)c(O)c1=O` [Example 45, 3-(4-(3-(3,4-dichlorophenyl)propylcarbamoyl)-5-hydroxy-1-methyl-6-oxo-1,6-dihydropyridin-2-yl)benzoic acid], for which the IC50 worked out at 199 nM.

As for `CC(CNC(=O)c1ccn(C)c(=O)c1O)Oc1ccc(F)cc1` (stereo not drawn) [Example 137, N-(2-(4-fluorophenoxy)propyl)-3-hydroxy-1-methyl-2-oxo-1,2-dihydropyridine-4-carboxamide], the IC50 worked out at 1660 nM.

Turning to `Cn1ccc(C(=O)NC(CCc2ccc(Cl)c(Cl)c2)C2CC2)c(O)c1=O` (single isomer, unassigned) [Example 118, N-(1-cyclopropyl-3-(3,4-dichlorophenyl)propyl)-3-hydroxy-1-methyl-2-oxo-1,2-dihydropyridine-4-carboxamide], the IC50 was determined as 2700 nM.

On to `COC(=O)c1cccc(OCCCNC(=O)c2ccn(C)c(=O)c2O)c1` [Example 198, methyl 3-(3-(3-hydroxy-1-methyl-2-oxo-1,2-dihydropyridine-4-carboxamido)propoxy)benzoate], for which the concentration for half-maximal inhibition (IC50) is 182 nM.

Regarding `Cn1ccc(C(=O)NCCCOc2ccc(Cl)c(Cl)c2)c(O)c1=O` [Example 194, N-(3-(3,4-dichlorophenoxy)propyl)-3-hydroxy-1-methyl-2-oxo-1,2-dihydropyridine-4-carboxamide], the half-maximal inhibitory concentration (IC50) worked out at 210 nM.

As to `Cn1ccc(C(=O)NC(CCc2ccc(Cl)c(Cl)c2)C2CC2)c(O)c1=O` (single isomer, unassigned) [Example 119, N-(1-cyclopropyl-3-(3,4-dichlorophenyl)propyl)-3-hydroxy-1-methyl-2-oxo-1,2-dihydropyridine-4-carboxamide], the half-maximal inhibitory concentration (IC50) worked out at 1620 nM.

In the case of `Cn1ccc(C(=O)NCCc2ccccc2Cl)c(O)c1=O` [Example 127, N-(2-chlorophenethyl)-3-hydroxy-1-methyl-2-oxo-1,2-dihydropyridine-4-carboxamide], the IC50 was 8660 nM.

On to `CC(C)C(CCc1ccc(Cl)c(Cl)c1)NC(=O)c1ccn(C)c(=O)c1O` (single isomer, unassigned) [Example 115, N-(1-(3,4-dichlorophenyl)-4-methylpentan-3-yl)-3-hydroxy-1-methyl-2-oxo-1,2-dihydropyridine-4-carboxamide], for which the IC50 was determined as 1790 nM.

Regarding `Cn1c(-c2cc(F)cc(F)c2)cc(C(=O)NCCCc2ccc(Cl)c(Cl)c2)c(O)c1=O` [Example 19, N-(3-(3,4-dichlorophenyl)propyl)-6-(3,5-difluorophenyl)-3-hydroxy-1-methyl-2-oxo-1,2-dihydropyridine-4-carboxamide], the IC50 is below 10 nM.

In the case of `Cn1ccc(C(=O)NCc2ccc(C(F)(F)F)cc2)c(O)c1=O` [Example 129, 3-hydroxy-1-methyl-2-oxo-N-(4-(trifluoromethyl)benzyl)-1,2-dihydropyridine-4-carboxamide], the IC50 worked out at 3560 nM.

As to `Cn1c(-c2cc(F)cc(C(F)(F)F)c2)cc(C(=O)NCCCOc2ccc(Cl)c(Cl)c2)c(O)c1=O` [Example 77, N-(3-(3,4-dichlorophenoxy)propyl)-6-(3-fluoro-5-(trifluoromethyl)phenyl)-3-hydroxy-1-methyl-2-oxo-1,2-dihydropyridine-4-carboxamide], the IC50 is below 10 nM.
